The values that follow come from patent publication US8465808B2, “Process for depositing an organic acid on the surface of a metal composition” (Duquesne University of the Holy Spirit, priority 2005, dated 2013).

For series [1] the following is noted: cited from earlier work.
The nature of series [2]: Static contact angle goniometry with water on modified SS316L. The series is classed as physicochemical. The note with it: SAM of the acid on SS316L; for Contact angle values: static, average of at least 3 samples, 6 readings each. The procedure:
Static contact angles were measured using VCA Optima Goniometry to determine the wettability of the surface. Measurements were made using the procedure described by Bain et al. (J. Am. Chem. Soc. 1989; Vol. 111, pgs. 321-335), known by those skilled in the art. About 1 μl drop of deionized water (purified with a Millipore Milli Q plus system) was formed at the end of the micro-liter syringe and brought into contact with the surface. Average contact angle value±standard deviation of 6 readings each on at least 3 samples have been reported.

Series [3] relates to 3T3 Swiss Albino embryo fibroblast cells. Kind of series: Cell adhesion (number of cells attached) on modified SS316L substrates. The series is classed as cell-based, mouse. To be noted: 3T3 cells, 24 hours, fluorescence microscopy. The procedure:
(§1) For cell experiments, 3T3 Swiss Albino embryo fibroblast cells of mouse were obtained from ATCC (CCL-92). The cells were grown in Dulbecco's modified Eagle medium (DMEM, Invitrogen Corp.) supplemented with 10% calf serum, 1% penicillin/[…] antibiotic. The cells were passaged every 3 days and were discarded after 15 passages. Cells were removed from the T 75 flasks by trypsinization, washed once with DMEM, suspended in culture medium. The modified SS316L substrates were placed in a 24 well plate and were sterilized with 70% ethanol for 10 mins and then rinsed with sterile distilled water 3 times. The sterilized substrates were left in the hood to dry. The suspended 3T3 Swiss Albino embryo fibroblast cells were then counted with a Haemocytometer after staining them with trypan blue and seeded at the density of 10,000 cells/well into each of the wells containing the substrates modified with respective acids After incubating the cells in humidified air with 5% CO2 for 24 hours at 37° C., the samples were rinsed with PBS three times and analyzed for live dead cells. Viability/cytotoxicity kit (L-3224) obtained from Molecular Probes was used to provide a simultaneous determination of live and dead cells. The assay contains Calcein AM and ethidium homodimer dyes. The live cells are identified by the enzymatic conversion of the non-fluorescent cell permeant calcein AM to intensely fluorescent calcein. This calcein is retained in the live cells and produces a green fluorescence. Ethidium homodimer is excluded by the intact plasma membrane of live cells but enters cells with damaged membranes (dead cells), binds to nucleic acid and produces a bright red fluorescence. Live cells are in green and dead cells in red when viewed under fluorescent microscope.
After washing with PBS, 0.5 ml of the live/dead stain was added to each well and the well plate was covered with aluminum foil and placed in the incubator for about 30 minutes. Three samples of each type of modification were used for every set and four such sets were performed. Each sample was mounted on the microscope slide and viewed under fluorescence Nikon Eclipse microscope at 10× magnification. Five different spots were observed and counted for cells on each sample and average value used for calculation of significance. Viability calculations were performed on each sample by counting the number of live cells in the total number of cells.
ANOVA was used to determine the statistical difference between the means of data sets for cell experiments with the modified substrates and multiple comparisons of the sample means was performed using Bonferroni post test using confidence level of 0.05.
In order to determine the stability of the interfacial systems developed in this work under physiological conditions and their viability for use in biomedical devices (and more specifically medically implantable devices), cell adhesion studies using fibroblasts were conducted on four sets of independent experiments with three samples each of all functionalized SAM with carboxylate and phosphonate head groups. The substrates were modified with —CH3, —COOH, —OH terminated phosphonic acids and —CH3, —OH, —COOH and —NH2 terminated carboxylic acids by the solution deposition process of the present invention as set forth herein. […] The samples were then rinsed with PBS three times and analyzed for live dead cells using the Viability/cytotoxicity kit. […]

Series [4] has the same test system. Kind of series: Live/dead viability of cells on modified SS316L substrates. The series is classed as cell-based. The note with it: 3T3 fibroblasts, 10,000 cells/well, 24 hours on SAM-modified SS316L. The procedure: as §1, with “Viability/cytotoxicity kit (L-3224) obtained from Molecular Probes was used to provide a simultaneous determination of live and dead cells. The assay contains Calcein AM and ethidium homodimer dyes. The live cells are identified by the enzymatic conversion of the non-fluorescent cell permeant calcein AM to intensely fluorescent calcein.” left out, “Live cells are in green and dead cells in red when viewed under fluorescent microscope.” left out

With `CCCCCCCCCCCCCCCCCC(=O)O` [Heptadecyl Carboxylic acid], the pKa entry in series [1] is “pKa = 10”.
Consider `O=C(O)CCCCCCCCCCCCC(=O)O` [C14COOH—C, 1,12-dodecanedicarboxylic acid], for which, in series [2], the “Contact angle compared with control SS316L substrate” value is given as “lower contact angle values than the control” and the Contact angle values is 42°.
On to `CCCCCCCCCCCCCCCCCCP(=O)(O)O` [ODPA, octadecylphosphonic acid], for which, in series [3], the “Number of cells attached to the modified SS316L (in words)” value (“Number of cells attached” for short) is “fewer cell attachments than ODCA”; the “Shape of the cells on the surface” value was “rounded and small”. Besides, the “Number of cells attached” value in series [3] (listed as methyl terminated phosphonic acid) is listed as “the least in number”. Besides, the pKa entry in series [1] is given as “pka = 4”. Further, in series [2], the Contact angle values is recorded as 108°. In addition, in series [4], the “Viability (live cells / total number of cells)” value is “about 92%”.
With `O=C(O)CCCCCCCCCCCCP(=O)(O)O` [C12COOH—P, 12-carboxydodecanephosphonic acid], the Contact angle values in series [2] turned out to be 52.3°.
For the compound `NCCCCCCCCCCCCC(=O)O` [C12NH2—C, 12-aminododecanecarboxylic acid], the “Number of cells attached” value in series [3] is recorded as “close to that in the control”. Further, in series [2], the Contact angle values turned out to be 38.4°.
The compound `O=P(O)(O)CCCCCCCCCCCO` [C11OH—P, 11-hydroxyundecanephosphonic acid] yielded a Contact angle values in series [2] of 59.8°. Also, in series [4], the “Viability (live cells / total number of cells)” value is reported as “about 92%”.
As for `CCCCCCCCCCCCCCCCCCS(=O)(=O)O` [Octadecyl sulfonic acid], the pKa entry in series [1] is recorded as “pKa = 2”.
For `O=C(O)CCCCCCCCCCCCCCCO` [C16OH—C, 16-hydroxyhexadecanoic acid], in series [2], the “Contact angle compared with control SS316L substrate” value is “lower contact angle values than the control” and the Contact angle values is recorded as 48.6°.
For `CCCCCCCCCCCCCCCCCCC(=O)O` [ODCA, octadecylcarboxylic acid], the “Shape of the cells on the surface” value in series [3] was “rounded and small”. In addition, the pKa result in series [1] is reported as “pKa = 10”. Further, the Contact angle values in series [2] worked out at 104.1°; in series [2] (listed as Octadecylcarboxylic acid) it was 104 °.
Take “12-aminododecanecarboxylic acid [C12NH2—C]”: the “Contact angle compared with control SS316L substrate” value in series [2] is “lower contact angle values than the control”.
